Target: T1, ORF-L16 (Saccharopolyspora spinosa, UniProt Q9ALP2)
T1 sequence (Q9ALP2 1-278): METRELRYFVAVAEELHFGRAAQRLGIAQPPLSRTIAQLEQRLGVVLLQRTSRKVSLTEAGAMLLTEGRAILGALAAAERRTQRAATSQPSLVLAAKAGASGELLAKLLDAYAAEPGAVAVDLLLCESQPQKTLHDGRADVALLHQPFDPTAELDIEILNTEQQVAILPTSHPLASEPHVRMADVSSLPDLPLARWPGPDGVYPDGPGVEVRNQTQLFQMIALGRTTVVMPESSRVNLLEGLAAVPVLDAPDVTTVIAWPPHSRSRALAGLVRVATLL
Assay: isothermal titration calorimetry
Type: binding

CC[C@H]1CCC[C@H](O[C@H]2CC[C@H](N(C)C)[C@@H](C)O2)[C@@H](C)C(=O)C2=C[C@@H]3[C@@H](C=C[C@@H]4C[C@@H](O[C@@H]5O[C@@H](C)[C@H](OC)[C@@H](OC)[C@H]5OC)C[C@@H]34)[C@@H]2CC(=O)O1 [spinosyn A]
Kd: 2360 ± 40 nM

Source: publication PMC11108826 (Synthetic and Systems Biotechnology, 2024)
